# From US20210276960A1, “INHIBITORS OF TISSUE TRANSGLUTAMINASE 2 (TG2) AND USES THEREOF” (Northwestern University, priority 2020, published 2021)
# Tests used:
# [1] = test system: FAK phosphorylation in SKOV3 cells; assay: Western blotting, FAK phosphorylation dose response; type: cell-based; conditions: increasing doses (TG53 8 to 16 μM), 2 hours after adhesion to FN
# Method: FIG. 33. Dose response effects induced by TG2-FN inhibitors on FAK phosphorylation.
# Lysates were separated by SDS-PAGE, transferred onto PVDF membranes (Bio-Rad), incubated with primary and secondary antibodies and developed by using SuperSignal™ West Femto Maximum Sensitivity Substrate and Pierce™ ECL Western Blotting Substrate, respectively (Thermo Scientific). Images were obtained by using the ImageQuant LAS 4000 mini-imager (GE Healthcare, Pittsburgh, Pa.). Densitometry analysis was performed using Quantity One software (Bio-Rad) and results were normalized to GAPDH loading controls. DMSO 0 min time point was considered as 1 for comparative analysis.
# [2] = test system: integrin β1 on OVCAR5 cells; assay: Flow cytometry of surface integrin β1, OVCAR5; type: cell-based, human; conditions: serial concentrations
# Method: FIG. 32. Flow cytometry analysis of integrin 31 plasma membrane expression. […] OC cells were pre-incubated 1 h with serial dilutions of MT4 (as compared to TG53- and DMSO-treated cells), and left to attach for on either plastic (P) or fibronectin (FN) coated 6-well plates. Anti-integrin 31 antibodies (0.5 μg/mL) were used as control.
# [3] = test system: TG2 co-localization with integrin β1, p-FAK, c-Src, p-c-Src in SKOV3 cells; assay: Confocal IF co-localization analysis; type: cell-based; conditions: 1 μM
# Method: In order to analyze cell adhesion complex proteins expression and localization upon early attachment, cells were treated as stated above and then seeded onto FN-coated cover slips for 30 minutes at 37° C. Samples were fixed in 4% p-formaldehyde (PFA) and permeabilized with 0.2% Triton-X-100. After blocking, focal contacts were identified by using anti-vinculin antibodies, activation of integrins signaling pathway was assessed by antibodies against phosphorylated focal adhesion kinase (FAK), while actin cytoskeleton was labeled by Alexa Fluor 488-conjugated phalloidin (Life Technologies, #A12379). Nuclei were stained with 1:10000 Hoechst (Thermo Scientific) and specimens were mounted in Prolong Gold anti-fadereagent (Life Technologies). Cells were analyzed by laser scanning using a Nikon A1RGaAsPConfocal Laser Microscope. For co-localization analyses, SKOV3 cells were treated with DMSO (control) or TG53 (1 μM) and plated on FN-coated chamber slides (BD Biosciences) for 72 hrs. […] Colocalization percentage was calculated by normalizing the pixels corresponding to Cy5 or Alexa Fluor 488 emissions to DAPI pixels in the same cell, followed by merging area of green with area of red and determination of average of overlap areas. A Student' t test was calculated to determine statistical significance of differences between drug treated and DMSO control treated cells.
# [4] = test system: SKOV3 cells adhesion to FN; assay: Solid phase adhesion assay to FN, SKOV3; type: cell-based
# Method: (§1) Cells labeled with calcein AM (Life Technologies, #L3224) were seeded at a density of 4×10^4 cells in 96-well plates pre-coated with FN (5 μg/mL, Sigma, #F1141), and blocked using 1% BSA (Sigma, #A9647) in PBS in the presence of selected compounds diluted at the specified concentrations, in serum free media. After 45 minutes, unattached cells were washed using PBS containing 1 mM MgCl2(Sigma, #M8266) and adherent cells were quantified in a SpectraMaxGeminiXS fluorescence plate reader (Molecular Devices, Palo Alto, Calif.) at 530 nm wavelength. Experiments were performed inquadruplicate and repeated at least twice.
# [5] = test system: OVCAR5 cells adhesion to FN; assay: Solid phase adhesion assay to FN, OVCAR5; type: cell-based, human; design: inhibition of adhesion to FN relative to TG53: dose or concentration left out as unconfirmed
# Method: as §1
# OVCAR5 cells = assay: Sphere forming assay after priming, with paclitaxel; type: cell-based, human; conditions: priming with 1 μM, with 5 nM PTX
# Method: After 72 h priming with either 1 μM MT-4, TG53 or vehicle (DMSO), 150 OVCAR5 cells were seeded in 60 mm dishes and treated or not with paclitaxel (PTX, Sigma). Colonies were allowed to form over 10 days, fixed in 4% PFA and stained with 0.4% crystal violet (MP Biomedicals). Colonies were counted, and analysis was performed using the ImageJ software ([…]).Spheroid cultures were carried out as previously described(Condello et al., 2015). Briefly, OC cells were resuspended in Mammocult complete medium (StemCell Technologies) supplemented with Mammocult Proliferation Supplements, heparin and hydrocortisone (StemCell Technologies) and seeded at a concentration of 10,000 cells/well in 96-well ultra-low attachment plates (Corning, Corning, N.Y., USA). After treatment with DMSO (control) or TG53 (1 μM) for 7 days, spheroids were counted and quantified by the CCK-8 assay. All assays were performed in four replicates and were repeated. For priming before PTX treatment, cells were manipulated as described for CFU assay and then seeded in 6-well low-attachment plate (Corning, #3473) at 7000 cells/mL/well and allowed to form spheroids in complete Mammocult media. Spheres were counted after ten days from 4 replicate wells. Two independent experiments were performed.
Compound,FAK phosphorylation [1],β1 integrin receptors at the plasma membrane [2],FAK and Src phosphorylation [3],"colocalization of TG2 with integrin β1, pFAK, c-Src and pSrc [3]","cell adhesion to FN ([4]; 25 μM, FIG. 13A)","inhibition of cell adhesion to FN, TG2 expressing vs AS-TG2 cells ([4]; 25 μM, SKOV3pcDNA3.1 vs SKOV3-ASTG2)","cell adhesion to FN, dose dependence and specificity ([4]; 1-25 μM, TG53 compared with TG288)",inhibition of adhesion to FN relative to TG53 [5],"cell adhesion to FN, dose dependence ([5]; 2 μM-25 μM)",cell proliferation as spheres (OVCAR5 cells),"cell adhesion to FN, dose dependence ([4]; 2 μM-25 μM)","OC cells' adhesion to FN ([4]; FN 5 μg/mL, FIG. 2E)"
COc1ccc(Cl)cc1C(=O)Nc1ccc(Nc2nc(C)cc(N(C)C)n2)cc1 [TG53],attenuated,did not show significant downregulation,marked decrease,significant decrease,inhibited cell adhesion,more pronounced in TG2 expressing SKOV3pcDNA3.1 cells,dose-dependent,,,,,
Cc1cc(N(C)C)nc(Nc2ccc(NC(=O)Cc3ccccc3)cc2)n1 [MT-4],dose-dependent inhibition,did not show significant downregulation,,,,,,more active than TG53,dose-dependent inhibitory effect,more potently than PTX alone or PTX and TG53,dose-dependent inhibitory effect,potently blocked
